#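 The concentration for 50% growth inhibition is given as GI50. Definition used: TGI = concentration required for complete inhibition of growth.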
# Tests used:
# Assay in all cases: NCI tumour cell line growth inhibition, 384-well format
# RXF 393 renal = system: RXF 393 renal
# EKVX NSCLC = system: EKVX NSCLC
# SNB-75 CNS = system: SNB-75 CNS
# TK-10 renal = system: TK-10 renal
# HOP-92 NSCLC = system: HOP-92 NSCLC
# MDA-MB-468 breast = system: MDA-MB-468 breast
# ACHN renal = system: ACHN renal
# OVCAR-5 ovarian = system: OVCAR-5 ovarian
# MALME-3M melanoma = system: MALME-3M melanoma
# NCI-H23 lung = system: NCI-H23 lung
# IGROV1 ovarian = system: IGROV1 ovarian
# MDA-MB-435 melanoma = system: MDA-MB-435 melanoma
# CAKI-1 renal = system: CAKI-1 renal
# UO-31 renal = system: UO-31 renal
# HCT-15 colon = system: HCT-15 colon
# BT-549 breast = system: BT-549 breast
# UACC-257 melanoma = system: UACC-257 melanoma
# SK-OV-3 ovarian = system: SK-OV-3 ovarian
# HOP-62 NSCLC = system: HOP-62 NSCLC
# SF-268 CNS = system: SF-268 CNS
# MOLT-4 leukemia = system: MOLT-4 leukemia
# NCI-H226 lung = system: NCI-H226 lung
# SNB-19 CNS = system: SNB-19 CNS
# UACC-62 melanoma = system: UACC-62 melanoma
# SF-295 CNS = system: SF-295 CNS
# U251 glioblastoma = system: U251 glioblastoma
# SK-MEL-5 melanoma = system: SK-MEL-5 melanoma
# COLO 205 colon = system: COLO 205 colon
# HCT-116 colon = system: HCT-116 colon
# NCI-H322M lung = system: NCI-H322M lung
# SK-MEL-2 melanoma = system: SK-MEL-2 melanoma
# SN12C renal = system: SN12C renal
# HL-60(TB) leukemia = system: HL-60(TB) leukemia
# DU-145 prostate = system: DU-145 prostate
# SK-MEL-28 melanoma = system: SK-MEL-28 melanoma
# T-47D breast = system: T-47D breast
# K-562 leukemia = system: K-562 leukemia
# NCI-H522 lung = system: NCI-H522 lung
# A549 NSCLC = system: A549 NSCLC
# SW-620 colon = system: SW-620 colon
# MCF7 breast = system: MCF7 breast
# HT29 colon = system: HT29 colon
# KM12 colon = system: KM12 colon
# HS 578T breast = system: HS 578T breast
# NCI-H460 NSCLC = system: NCI-H460 NSCLC
# SF-539 CNS = system: SF-539 CNS
# SR leukemia = system: SR leukemia
# PC-3 prostate = system: PC-3 prostate
# OVCAR-3 ovarian = system: OVCAR-3 ovarian
# OVCAR-8 ovarian = system: OVCAR-8 ovarian
# A498 renal = system: A498 renal
# OVCAR-4 ovarian = system: OVCAR-4 ovarian
# M14 melanoma = system: M14 melanoma
# 786-0 renal = system: 786-0 renal
# MDA-MB-231 breast = system: MDA-MB-231 breast
smiles,measurement,setting,value
COC1(C(=O)N[C@@H](C)c2ccc(-n3cc(F)cn3)nc2)CCC(c2nc(C)cc(Nc3cc(C)[nH]n3)n2)CC1 (stereo not given in full),GI50,RXF 393 renal,0.138 µM
same,TGI,RXF 393 renal,0.671 µM
same,GI50,EKVX NSCLC,0.545 µM
same,TGI,EKVX NSCLC,2.29 µM
same,GI50,SNB-75 CNS,0.285 µM
same,TGI,SNB-75 CNS,1.32 µM
same,GI50,TK-10 renal,1.4 µM
same,TGI,TK-10 renal,3.93 µM
same,GI50,HOP-92 NSCLC,0.691 µM
same,TGI,HOP-92 NSCLC,2.67 µM
same,GI50,MDA-MB-468 breast,1.74 µM
same,TGI,MDA-MB-468 breast,4.8 µM
same,GI50,ACHN renal,0.896 µM
same,TGI,ACHN renal,4.45 µM
same,GI50,OVCAR-5 ovarian,2.31 µM
same,TGI,OVCAR-5 ovarian,13.9 µM
same,GI50,MALME-3M melanoma,11.3 µM
same,TGI,MALME-3M melanoma,23.6 µM
same,GI50,NCI-H23 lung,0.629 µM
same,TGI,NCI-H23 lung,10.6 µM
same,GI50,IGROV1 ovarian,0.304 µM
same,TGI,IGROV1 ovarian,1.37 µM
same,GI50,MDA-MB-435 melanoma,11.7 µM
same,TGI,MDA-MB-435 melanoma,24.1 µM
same,GI50,CAKI-1 renal,1.28 µM
same,TGI,CAKI-1 renal,2.69 µM
same,GI50,UO-31 renal,1.14 µM
same,TGI,UO-31 renal,2.78 µM
same,GI50,HCT-15 colon,4.58 µM
same,TGI,HCT-15 colon,17.2 µM
same,GI50,BT-549 breast,0.813 µM
same,TGI,BT-549 breast,2.56 µM
same,GI50,UACC-257 melanoma,15.7 µM
same,TGI,UACC-257 melanoma,29.3 µM
same,GI50,SK-OV-3 ovarian,0.605 µM
same,TGI,SK-OV-3 ovarian,2.64 µM
same,GI50,HOP-62 NSCLC,1.46 µM
same,TGI,HOP-62 NSCLC,6.13 µM
same,GI50,SF-268 CNS,1.38 µM
same,TGI,SF-268 CNS,3.69 µM
same,GI50,MOLT-4 leukemia,1.84 µM
same,TGI,MOLT-4 leukemia,5.62 µM
same,GI50,NCI-H226 lung,0.246 µM
same,TGI,NCI-H226 lung,2.08 µM
same,GI50,SNB-19 CNS,3.69 µM
same,TGI,SNB-19 CNS,18.1 µM
same,GI50,UACC-62 melanoma,5.55 µM
same,TGI,UACC-62 melanoma,18.5 µM
same,GI50,SF-295 CNS,1.39 µM
same,TGI,SF-295 CNS,4.21 µM
same,GI50,U251 glioblastoma,1.54 µM
same,TGI,U251 glioblastoma,12.3 µM
same,GI50,SK-MEL-5 melanoma,2.3 µM
same,TGI,SK-MEL-5 melanoma,11.2 µM
same,GI50,COLO 205 colon,13.8 µM
same,TGI,COLO 205 colon,26.9 µM
same,GI50,HCT-116 colon,4.04 µM
same,TGI,HCT-116 colon,17.3 µM
same,GI50,NCI-H322M lung,2.12 µM
same,TGI,NCI-H322M lung,11.1 µM
same,GI50,SK-MEL-2 melanoma,11 µM
same,TGI,SK-MEL-2 melanoma,23.1 µM
same,GI50,SN12C renal,0.493 µM
same,TGI,SN12C renal,10 µM
same,GI50,HL-60(TB) leukemia,5.4 µM
same,TGI,HL-60(TB) leukemia,18.5 µM
same,GI50,DU-145 prostate,1.72 µM
same,TGI,DU-145 prostate,4.04 µM
same,GI50,SK-MEL-28 melanoma,12 µM
same,TGI,SK-MEL-28 melanoma,24.5 µM
same,GI50,T-47D breast,2.28 µM
same,TGI,T-47D breast,10.7 µM
same,GI50,K-562 leukemia,1.7 µM
same,TGI,K-562 leukemia,11.6 µM
same,GI50,NCI-H522 lung,1.19 µM
same,TGI,NCI-H522 lung,3.11 µM
same,GI50,A549 NSCLC,2.41 µM
same,TGI,A549 NSCLC,12 µM
same,GI50,SW-620 colon,2.58 µM
same,TGI,SW-620 colon,17 µM
same,GI50,MCF7 breast,2 µM
same,TGI,MCF7 breast,14.4 µM
same,GI50,HT29 colon,4.94 µM
same,TGI,HT29 colon,19.1 µM
same,GI50,KM12 colon,5.12 µM
same,TGI,KM12 colon,18.3 µM
same,GI50,HS 578T breast,0.253 µM
same,TGI,HS 578T breast,1.58 µM
same,GI50,NCI-H460 NSCLC,0.0527 µM
same,TGI,NCI-H460 NSCLC,13.7 µM
same,GI50,SF-539 CNS,0.226 µM
same,TGI,SF-539 CNS,1.12 µM
same,GI50,SR leukemia,2.13 µM
same,TGI,SR leukemia,5.27 µM
same,GI50,PC-3 prostate,3.42 µM
same,TGI,PC-3 prostate,15.7 µM
same,GI50,OVCAR-3 ovarian,1.67 µM
same,TGI,OVCAR-3 ovarian,12.8 µM
same,GI50,OVCAR-8 ovarian,3.35 µM
same,TGI,OVCAR-8 ovarian,12.9 µM
same,GI50,A498 renal,1.83 µM
same,TGI,A498 renal,4.4 µM
same,GI50,OVCAR-4 ovarian,2.12 µM
same,TGI,OVCAR-4 ovarian,17.8 µM
same,GI50,M14 melanoma,11.3 µM
same,TGI,M14 melanoma,23.4 µM
same,GI50,786-0 renal,1.82 µM
same,TGI,786-0 renal,6.42 µM
same,GI50,MDA-MB-231 breast,2.6 µM
same,TGI,MDA-MB-231 breast,14 µM
